Source: patent US4833144A, “2-Alkylsulfinyl-4(3H)-quinazolinone derivatives and pharmaceutical compositions” (Nisshin Flour Milling Co., Ltd., priority 1987, dated 1989)
Like-named read-outs stand apart in the source and are kept apart here.

What was measured:
[1] = system: indomethacin induced ulcer; assay: antiulcer activity: suppression of indomethacin induced ulcer in mice; type: in vivo, ddY series male mice; conditions: po, read-out: Suppression rate of indomethacin induced ulcer, 100 mg/kg, p.o.
Protocol: The antiulcer activity of the compounds of this invention was determined by the following method. Four-week-old ddY series male mice were used as the test animals after they were fasted for 24 hours. Each test compound suspended in a 1% gum arabic solution was administerd to the stomach of each mouse at a dose of 100 mg/kg, and then, after 30 minutes, 20 mg/kg of indomethacin was administered orally. Four hours after the administration of indomethacin, the stomach of mouse was extirpated and the length of ulcers was measured. Then, the ulcer index was determined by the total sum of the scores as calculated in Table 1.

[2] = acute oral toxicity (LD50); conditions: in vivo
[3] = mouse, 100 mg/kg p.o. 30 min before 20 mg/kg indomethacin, ulcer index 4 h later, vs control group

| Structure (SMILES) | inhibition in vivo at 100 mg/kg [1, 3] [%] | inhibition in vivo at 100 mg/kg ([1]; Mus musculus, 4 h) [%] | LD50 [2] [mg/kg] |
| --- | --- | --- | --- |
| O=c1c2ccccc2nc([S+]([O-])Cc2ccnc3ccccc23)n1-c1ccccc1 (stereo not drawn) [3-phenyl-2-(4-quinolylmethylsulfinyl)-4(3H)-quinazolinone] | 64 | – | – |
| Cc1ccnc(C[S+]([O-])c2nc3ccccc3c(=O)n2-c2ccccc2)c1 (stereo not drawn) [2-[(4-methylpyridin-2-yl)methylsulfinyl]-3-phenyl-4(3H)-quinazolinone] | 68 | – | – |
| Cc1ccc(-n2c([S+]([O-])Cc3ccccn3)nc3ccccc3c2=O)cc1 (stereo not drawn) [3-(4-methylphenyl)-2-(2-pyridylmethylsulfinyl)-4(3H)-quinazolinone] | 73 | – | – |
| COc1cc(C[S+]([O-])c2nc3ccccc3c(=O)n2-c2ccccc2)ncc1C (stereo not drawn) [2-[(4-methoxy-5-methylpyridin-2-yl)methylsulfinyl]-3-phenyl-4(3H)-quinazolinone] | 82 | – | – |
| COc1ccc(-n2c([S+]([O-])Cc3nccc(OC)c3C)nc3ccc(C)cc3c2=O)cc1 (stereo not drawn) [2-[(4-methoxy-3-methylpyridin-2-yl)methylsulfinyl]-3-(4-methoxyphenyl)-6-methyl-4(3H)-quinazolinone] | 51 | – | – |
| CC(C)Cn1c([S+]([O-])Cc2ccccn2)nc2ccccc2c1=O (stereo not drawn) [3-isobutyl-2-(2-pyridylmethylsulfinyl)-4(3H)-quinazolinone] | 40 | – | – |
| O=c1c2ccccc2nc([S+]([O-])Cc2cccnc2)n1-c1ccccc1 (stereo not drawn) [3-phenyl-2-(3-pyridylmethylsulfinyl)-4(3H)-quinazolinone] | 55 | – | – |
| O=c1c2ccccc2nc([S+]([O-])Cc2ccccn2)n1-c1cccc2ccccc12 (stereo not drawn) [3-(1-naphthyl)-2-(2-pyridylmethylsulfinyl)-4(3H)-quinazolinone] | 39 | – | – |
| COc1ccc(-n2c([S+]([O-])Cc3ccccn3)nc3ccccc3c2=O)cc1 (stereo not drawn) [3-(4-methoxyphenyl)-2-(2-pyridylmethylsulfinyl)-4(3H)-quinazolinone] | 72 | – | – |
| Cc1cccc2nc([S+]([O-])Cc3ccccn3)n(-c3ccccc3)c(=O)c12 (stereo not drawn) [5-methyl-3-phenyl-2-(2-pyridylmethylsulfinyl)-4(3H)-quinazolinone] | 77 | – | – |
| O=c1c2ccccc2nc([S+]([O-])Cc2ccncc2)n1-c1ccccc1 (stereo not drawn) [3-Phenyl-2-(4-pyridylmethylsulfinyl)-4(3H)-quinazolinone] | 69 | – | – |
| CN/C(=N/CCSCc1nc[nH]c1C)NC#N [Cimetidine, reference compound] | – | 40 | – |
| O=c1c2ccccc2nc([S+]([O-])Cc2ccccn2)n1-c1ccccc1 (stereo not drawn) [3-Phenyl-2-(2-pyridylmethylsulfinyl)-4(3H)-quinazolinone] | 83 | – | > 3000 |
| Cc1ccc2nc([S+]([O-])Cc3ccccn3)n(-c3ccccc3)c(=O)c2c1 (stereo not drawn) [6-methyl-3-phenyl-2-(2-pyridylmethylsulfinyl)-4(3H)-quinazolinone] | 56 | – | – |
| COc1cc(C[S+]([O-])c2nc3ccc(C)cc3c(=O)n2-c2ccccc2)ncc1C (stereo not drawn) [2-[(4-methoxy-5-methylpyridine-2-yl)methylsulfinyl]-6-methyl-3-phenyl-4(3H)-quinazolinone] | 59 | – | – |
| COc1cccc(-n2c([S+]([O-])Cc3ccccn3)nc3ccccc3c2=O)c1 (stereo not drawn) [3-(3-methoxyphenyl)-2-(2-pyridylmethylsulfinyl)-4(3H)-quinazolinone] | 73 | – | – |
| O=c1c2ccccc2nc([S+]([O-])Cc2ccccn2)n1-c1ccccc1Cl (stereo not drawn) [3-(2-chlorophenyl)-2-(2-pyridylmethylsulfinyl)-4(3H)-quinazolinone] | 56 | – | – |
